Source: patent US10738009B2, “Pyridone amides as modulators of sodium channels” (VERTEX PHARMACEUTICALS INCORPORATED, priority 2013, dated 2020)

Assays:
[1] = Microsomal stability assay, human liver microsomes (HLM); format: in vitro ADME; details: human liver microsomes 0.5 mg/mL, 1 uM substrate, 2 mM NADPH, 37° C., vs time zero control
Protocol: (§1) Microsomal Stability Assay. Compounds were incubated at 37° C. and shaken for 30 minutes in a phosphate buffered solution with either rat or human liver microsomes and the cofactor NADPH. A time zero control was similarly prepared, however with NADPH excluded. The final incubation concentrations were 1 uM substrate (0.2% DMSO), 0.5 mg/mL liver microsome, 2 mM NADPH, and 0.1 M phosphate. Reactions were quenched and proteins precipitated with the addition of 2 volume equivalents of ice cold acetonitrile containing an internal standard. Following a centrifugation step, aliquots from the quenched incubations were further diluted with 4 volume equivalents of a 50% aqueous methanol solution and then subjected to LC/MS/MS analysis for quantitation of parent compound. Microsome stability values were calculated as the percent of substrate remaining after 30 minutes referenced against the time zero control.
(§2) Microsomal stability in rat and human liver microsomes were determined for selected compounds of the present invention using the above assay. Table 4 provides the human liver microsomes (“HLM”) and rat liver microsomes (“RLM”) stability data as the percent of compound remaining after 30 minutes referenced against the time zero control.

[2] = Microsomal stability assay, rat liver microsomes (RLM); format: in vitro ADME; details: rat liver microsomes 0.5 mg/mL, 1 uM substrate, 2 mM NADPH, 37° C., vs time zero control
Protocol: as §1, §2

| HLM (% remaining @ 30 minutes) [1] | RLM (% remaining @ 30 minutes) [2] | Structure (SMILES) |
| --- | --- | --- |
| 100% |  | O=C(Nc1cc[nH]c(=O)c1)c1cc(C(F)(F)F)ccc1Oc1ccc(F)cc1 [Compound 2, 2-(4-fluorophenoxy)-N-(2-oxo-1,2-dihydropyridin-4-yl)-5-(trifluoromethyl)benzamide] |
| 97% | 99% | O=C(Nc1cc[nH]c(=O)c1)c1ccc(C(F)(F)F)cc1Oc1ccc(F)cc1F [Compound 7, 2-(2,4-difluorophenoxy)-N-(2-oxo-1,2-dihydropyridin-4-yl)-4-(trifluoromethyl)benzamide] |
| 90% | 86% | COCCOc1ccc(Oc2cc(C(F)(F)F)ccc2C(=O)Nc2cc[nH]c(=O)c2)cc1 [Compound 8, 2-(4-(2-methoxyethoxy)phenoxy)-N-(2-oxo-1,2-dihydropyridin-4-yl)-4-(trifluoromethyl)benzamide] |
| 93% | 82% | Cc1cc(F)ccc1Oc1cc(C(F)(F)F)ccc1C(=O)Nc1cc[nH]c(=O)c1 [Compound 10, 2-(4-fluoro-2-methylphenoxy)-N-(2-oxo-1,2-dihydropyridin-4-yl)-4-(trifluoromethyl)benzamide] |
|  | 88% | Cc1cc(F)ccc1Oc1cc(Cl)ccc1C(=O)Nc1cc[nH]c(=O)c1 [Compound 20, 4-chloro-2-(4-fluoro-2-methylphenoxy)-N-(2-oxo-1,2-dihydropyridin-4-yl)benzamide] |
| 79% | 70% | Cc1ccccc1Oc1ccc(C(F)(F)F)cc1C(=O)Nc1cc[nH]c(=O)c1 [Compound 28, N-(2-oxo-1,2-dihydropyridin-4-yl)-2-(o-tolyloxy)-5-(trifluoromethyl)benzamide] |
| 76% | 78% | COc1cc(F)ccc1Oc1ccc(C(F)(F)F)cc1C(=O)Nc1cc[nH]c(=O)c1 [Compound 30, 2-(4-fluoro-2-methoxyphenoxy)-N-(2-oxo-1,2-dihydropyridin-4-yl)-5-(trifluoromethyl)benzamide] |
| 92% | 91% | Cc1cc(F)ccc1Oc1ccc(C(F)(F)F)cc1C(=O)Nc1cc[nH]c(=O)c1 [Compound 31, 2-(4-fluoro-2-methylphenoxy)-N-(2-oxo-1,2-dihydropyridin-4-yl)-5-(trifluoromethyl)benzamide] |
| 100% | 110% | O=C(Nc1cc[nH]c(=O)c1)c1cc(OC(F)(F)F)ccc1Oc1ccc(F)cc1F [Compound 33, 2-(2,4-difluorophenoxy)-N-(2-oxo-1,2-dihydropyridin-4-yl)-5-(trifluoromethoxy)benzamide] |
| 100% | 97% | O=C(Nc1cc[nH]c(=O)c1)c1cc(OC(F)(F)F)ccc1Oc1ccc(F)cc1Cl [Compound 37, 2-(2-chloro-4-fluorophenoxy)-N-(2-oxo-1,2-dihydropyridin-4-yl)-5-(trifluoromethoxy)benzamide] |
| 93% | 84% | CCOc1ccc(Oc2ccc(C(F)(F)F)cc2C(=O)Nc2cc[nH]c(=O)c2)cc1 [Compound 44, 2-(4-ethoxyphenoxy)-N-(2-oxo-1,2-dihydropyridin-4-yl)-5-(trifluoromethyl)benzamide] |
| 100% |  | O=C(Nc1cc[nH]c(=O)c1)c1cc(Cl)ccc1Oc1ccc(F)cc1Cl [Compound 66, 5-chloro-2-(2-chloro-4-fluorophenoxy)-N-(2-oxo-1,2-dihydropyridin-4-yl)benzamide] |
| 98% | 72% | Cc1cc(F)ccc1Oc1ccc(Cl)cc1C(=O)Nc1cc[nH]c(=O)c1 [Compound 68, 5-chloro-2-(4-fluoro-2-methylphenoxy)-N-(2-oxo-1,2-dihydropyridin-4-yl)benzamide] |
| 100% |  | O=C(Nc1cc[nH]c(=O)c1)c1cc(C(F)(F)F)ccc1Oc1ccc(OC(F)(F)F)cc1 [Compound 72, N-(2-oxo-1,2-dihydropyridin-4-yl)-2-(4-(trifluoromethoxy)phenoxy)-5-(trifluoromethyl)benzamide] |
| 90% | 95% | O=C(Nc1cc[nH]c(=O)c1)c1cc(C(F)(F)F)ccc1Oc1ccccc1OC(F)(F)F [Compound 75, N-(2-oxo-1,2-dihydropyridin-4-yl)-2-(2-(trifluoromethoxy)phenoxy)-5-(trifluoromethyl)benzamide] |
| 97% | 93% | O=C(Nc1cc[nH]c(=O)c1)c1cc(C(F)(F)F)ccc1Oc1ccccc1OC(F)F [Compound 76, 2-(2-(difluoromethoxy)phenoxy)-N-(2-oxo-1,2-dihydropyridin-4-yl)-5-(trifluoromethyl)benzamide] |
|  | 100% | O=C(Nc1cc[nH]c(=O)c1)c1ccc(C(F)(F)F)cc1Oc1ccc(OC(F)(F)F)cc1 [Compound 79, N-(2-oxo-1,2-dihydropyridin-4-yl)-2-(4-(trifluoromethoxy)phenoxy)-4-(trifluoromethyl)benzamide] |
|  | 98% | O=C(Nc1cc[nH]c(=O)c1)c1ccc(C(F)(F)F)cc1Oc1ccc(OC(F)F)cc1 [Compound 82, 2-(4-(difluoromethoxy)phenoxy)-N-(2-oxo-1,2-dihydropyridin-4-yl)-4-(trifluoromethyl)benzamide] |
| 100% |  | O=C(Nc1cc[nH]c(=O)c1)c1ccc(C(F)(F)C(F)(F)F)cc1Oc1ccc(F)cc1 [Compound 88, 2-(4-fluorophenoxy)-N-(2-oxo-1,2-dihydropyridin-4-yl)-4-(perfluoroethyl)benzamide] |
| 97% | 89% | O=C(Nc1cc[nH]c(=O)c1)c1cc(F)ccc1Oc1ccc(OC(F)(F)F)cc1 [Compound 101, 5-fluoro-N-(2-oxo-1,2-dihydropyridin-4-yl)-2-(4-(trifluoromethoxy)phenoxy)benzamide] |
|  | 100% | O=C(Nc1cc[nH]c(=O)c1)c1cc(F)c(Cl)cc1Oc1ccc(F)cc1Cl [Compound 109, 4-chloro-2-(2-chloro-4-fluorophenoxy)-5-fluoro-N-(2-oxo-1,2-dihydropyridin-4-yl)benzamide] |
| 91% | 90% | COc1cc(F)ccc1Oc1cc(C(F)(F)C(F)(F)F)ccc1C(=O)Nc1cc[nH]c(=O)c1 [Compound 111, 2-(4-fluoro-2-methoxyphenoxy)-N-(2-oxo-1,2-dihydropyridin-4-yl)-4-(perfluoroethyl)benzamide] |
| 91% | 82% | COc1cc(F)ccc1Oc1cc(Cl)c(Cl)cc1C(=O)Nc1cc[nH]c(=O)c1 [Compound 114, 4,5-dichloro-2-(4-fluoro-2-methoxyphenoxy)-N-(2-oxo-1,2-dihydropyridin-4-yl)benzamide] |
|  | 95% | COc1ccc(Oc2cc(Cl)c(Cl)cc2C(=O)Nc2cc[nH]c(=O)c2)cc1F [Compound 115, 4,5-dichloro-2-(3-fluoro-4-methoxyphenoxy)-N-(2-oxo-1,2-dihydropyridin-4-yl)benzamide] |
| 87% | 79% | O=C(Nc1cc[nH]c(=O)c1)c1ccc(C(F)(F)F)cc1OCC1CCCC1 [Compound 120, 2-(cyclopentylmethoxy)-N-(2-oxo-1,2-dihydropyridin-4-yl)-4-(trifluoromethyl)benzamide] |
| 38% | 50% | CC(C)(C)c1ccc(C(=O)Nc2ccc(=O)[nH]c2)c(Oc2ccc(C(F)(F)F)nc2)c1 [Compound 142, 4-(tert-butyl)-N-(6-oxo-1,6-dihydropyridin-3-yl)-2-((6-(trifluoromethyl)pyridin-3-yl)oxy)benzamide] |
|  | 100% | O=C(Nc1cc[nH]c(=O)c1)c1c(Oc2ccc(F)cc2F)cc(C(F)(F)F)cc1C(F)(F)F [Compound 152, 2-(2,4-difluorophenoxy)-N-(2-oxo-1,2-dihydropyridin-4-yl)-4,6-bis(trifluoromethyl)benzamide] |

| Structure (SMILES) | HLM (% remaining @ 30 minutes) [1] | RLM (% remaining @ 30 minutes) [2] |
| --- | --- | --- |
| O=C(Nc1cc[nH]c(=O)c1)c1ccc(C(F)(F)F)cc1OCCCC(F)(F)F [Compound 123, N-(2-oxo-1,2-dihydropyridin-4-yl)-2-(4,4,4-trifluorobutoxy)-4-(trifluoromethyl)benzamide] |  | 98% |
